Laboratory results as given in article PMC2860877 (Bioorganic & medicinal chemistry, 2008).

What follows are molecules tested against T1, epitope-tagged (histidine6) catalytic domain of human recombinant Cdc25B (Homo sapiens, UniProt P30305) (assay: Cdc25B phosphatase inhibition, catalytic domain). Conditions: comparison of Cdc25B, MKP-1, MKP-3 assays.
T1 sequence (P30305 275-539 isoform P30305-3): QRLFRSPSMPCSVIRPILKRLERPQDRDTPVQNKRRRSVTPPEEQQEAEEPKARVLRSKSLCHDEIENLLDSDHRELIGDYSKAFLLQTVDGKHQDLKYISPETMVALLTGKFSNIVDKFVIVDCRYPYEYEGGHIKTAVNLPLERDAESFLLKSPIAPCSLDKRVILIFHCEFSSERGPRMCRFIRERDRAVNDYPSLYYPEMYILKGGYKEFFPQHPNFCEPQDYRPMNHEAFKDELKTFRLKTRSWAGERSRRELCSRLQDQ
Format: biochemical

Structure (SMILES)	selectivity for Cdc25B as opposed to MKP-1 and MKP-3, in words
O=C1C2=C(C(=O)c3ccccc31)S(=O)(=O)CCN2 [Compound 16]	moderately selective for Cdc25B
O=C1C2=C(C(=O)c3c(O)cccc31)S(=O)(=O)CCN2 [Compound 17]	moderately selective for Cdc25B
CCOC1=CC(=O)C(=O)c2ccccc21 [Compound 20]	relatively non-selective

Same assay, conditions: structure-activity discussion

Structure (SMILES)	Cdc25B activity in words
O=C1C=CC(=O)C=C1 [Compound 10, 1,4-benzoquinone]	complete loss of enzyme activity
O=C1C=C(NCCO)C(=O)c2ccccc21 [Compound 18]	complete loss of activity
CC1=C(NCCO)C(=O)c2ccccc2C1=O [Compound 19]	complete loss of activity

These molecules were tested against T2, epitope-tagged (histidine6) recombinant MKP-1 (Homo sapiens, UniProt P28562) (assay: MKP-1 phosphatase inhibition). Conditions: not given.
T2 sequence (P28562 1-367): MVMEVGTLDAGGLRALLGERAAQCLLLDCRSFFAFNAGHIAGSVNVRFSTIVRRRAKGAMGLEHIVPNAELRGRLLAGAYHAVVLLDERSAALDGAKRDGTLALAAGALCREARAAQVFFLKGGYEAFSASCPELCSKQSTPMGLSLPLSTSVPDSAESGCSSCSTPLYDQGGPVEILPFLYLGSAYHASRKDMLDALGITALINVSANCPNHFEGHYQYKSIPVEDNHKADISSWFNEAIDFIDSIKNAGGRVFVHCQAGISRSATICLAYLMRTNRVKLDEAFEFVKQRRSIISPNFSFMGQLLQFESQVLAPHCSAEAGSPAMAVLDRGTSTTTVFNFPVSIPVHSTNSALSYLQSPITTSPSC
Format: biochemical

Structure (SMILES)	IC50 [µM]
O=C1c2cc3c(cc2C(=O)C2OC12)CCCC3 (centres unmarked) [Compound 8]	> 50
O=C1C=CC(=O)C=C1 [Compound 10, 1,4-benzoquinone]	> 50
O=C1c2ccccc2C(=O)c2ccccc21 [Compound 12, 9,10-anthraquinone]	> 50
O=C1C=C(NCCO)C(=O)c2ccccc21 [Compound 18]	> 50
CC1=C(NCCO)C(=O)c2ccccc2C1=O [Compound 19]	> 50
